Results: paper PMC8286840, “Identifying SARS-CoV-2 antiviral compounds by screening for small molecule inhibitors of Nsp3 papain-like protease” (Biochemical Journal, 2021)
Where a name gives a salt, the structure may show the parent alone. Read-outs that look alike come from different tables or passages of the source.

Legend:
[1] = target: T1, SARS-CoV-2 PLpro (nsp3 1564–1878) (Severe acute respiratory syndrome coronavirus 2, UniProt P0DTD1); experiment: biochemical; parameters: FRET-quenched peptide (Pro3) cleavage by PLpro, 10 min pre-incubation, slope over 20 min, normalised to no-compound control; conditions: low concentration screen, read-out: % of control remaining
[2] = target: T1, SARS-CoV-2 PLpro (nsp3 1564–1878); experiment: biochemical; parameters: FRET-quenched peptide (Pro3) cleavage by PLpro, 10 min pre-incubation, slope over 20 min, normalised to no-compound control; conditions: high concentration screen, read-out: % of control remaining

## c1ccc(NCc2ccc(CNc3ccccn3)cc2)nc1 [WZ811]
[1]; Well no.=7135
  remaining activity at 1.25 µM: 102%
[1]; Well no.=8459
  remaining activity at 1.25 µM: 98.2%
[2]; Well no.=7135
  remaining activity at 3.75 µM: 96.2%
[2]; Well no.=8459
  remaining activity at 3.75 µM: 88.4%

## C=CC(=O)Nc1cccc(Oc2nc(Nc3ccc(N4CCN(C)CC4)cc3)ncc2Cl)c1 [WZ3146]
[1]; Well no.=4711
  remaining activity at 1.25 µM: 103%
[2]; Well no.=4711
  remaining activity at 3.75 µM: 106%

## C=CC(=O)Nc1cccc(Oc2nc(Nc3ccc(N4CCN(C)CC4)cc3OC)ncc2Cl)c1 [WZ4002]
[1]; Well no.=4713
  remaining activity at 1.25 µM: 107%
[2]; Well no.=4713
  remaining activity at 3.75 µM: 106%

## C=CC(=O)Nc1cccc(Sc2nc(Nc3ccc(N4CCN(C)CC4)cc3)ncc2Cl)c1 [WZ8040]
[1]; Well no.=4717
  remaining activity at 1.25 µM: 107%
[2]; Well no.=4717
  remaining activity at 3.75 µM: 107%

## c1ccc(NCc2ccc(CNc3ccccn3)cc2)nc1 [WZ 811]
[1]; Well no.=4843
  remaining activity at 1.25 µM: 100%
[2]; Well no.=4843
  remaining activity at 3.75 µM: 102%

## O=C(Oc1cccc(F)c1OC(=O)c1cccc(O)c1)c1cccc(O)c1 [WZB117]
[1]; Well no.=8770
  remaining activity at 1.25 µM: 102%
[2]; Well no.=8770
  remaining activity at 3.75 µM: 101%

## COc1cc(O)c2c(c1)oc(=O)c1c3cc(O)c(O)cc3oc21 [Wedelolactone]
[1]; Well no.=3230
  remaining activity at 1.25 µM: 99.3%
[2]; Well no.=3230
  remaining activity at 3.75 µM: 98%

## CCCCn1c2ccc(O)cc2c2c3c(c(-c4ccccc4Cl)cc21)C(=O)NC3=O [Wee1 Inhibitor II]
[1]; Well no.=2685
  remaining activity at 1.25 µM: 90.9%
[2]; Well no.=2685
  remaining activity at 3.75 µM: 88.5%

## O=C1NC(=O)c2c1c(-c1ccccc1Cl)cc1[nH]c3ccc(O)cc3c21 [Wee1 Inhibitor]
[1]; Well no.=2683
  remaining activity at 1.25 µM: 97.3%
[2]; Well no.=2683
  remaining activity at 3.75 µM: 97.7%

## COc1c(O)cc(O)c2c(=O)cc(-c3ccccc3)oc12 [Wogonin]
[1]; Well no.=3735
  remaining activity at 1.25 µM: 96.1%
[2]; Well no.=3735
  remaining activity at 3.75 µM: 98.6%

## COC[C@H]1OC(=O)c2coc3c2[C@@]1(C)C1=C(C3=O)C2CCC(=O)[C@@]2(C)C[C@H]1OC(C)=O (stereo partly shown) [Wortmannin from Penicillium funiculosum]
[1]; Well no.=1386
  remaining activity at 1.25 µM: 92.9%
[2]; Well no.=1386
  remaining activity at 3.75 µM: 94.7%

## COC[C@H]1OC(=O)c2coc3c2[C@@]1(C)C1=C(C3=O)[C@@H]2CCC(=O)[C@@]2(C)C[C@H]1OC(C)=O [Wortmannin]
[1]; Well no.=3232
  remaining activity at 1.25 µM: 99.9%
[2]; Well no.=3232
  remaining activity at 3.75 µM: 102%

## Oc1nc(-c2ccc(C(F)(F)F)cc2)nc2c1CSCC2 [XAV-939]
[1]; Well no.=4719
  remaining activity at 1.25 µM: 102%
[2]; Well no.=4719
  remaining activity at 3.75 µM: 103%

## CCN(Cc1ccccc1)C(=O)Cn1c(=O)n(C)c2cnc(-c3ccccc3)nc21 [XBD173]
[1]; Well no.=6053
  remaining activity at 1.25 µM: 102%
[2]; Well no.=6053
  remaining activity at 3.75 µM: 100%

## O=C(O)c1cc(C(F)(F)F)ccc1N1CC[C@H](OCc2ccccn2)C1 [XEN445]
[1]; Well no.=8574
  remaining activity at 1.25 µM: 105%
[2]; Well no.=8574
  remaining activity at 3.75 µM: 109%

## CCN(CC)CCCC(C)Nc1cc(/C=C/c2ccccc2Cl)nc2cc(Cl)ccc12 (stereo not shown) [XIB4035]
[1]; Well no.=5692
  remaining activity at 1.25 µM: 89%
[2]; Well no.=5692
  remaining activity at 3.75 µM: 89.5%

## COc1ccc(Cl)c(Nc2nc3ccccc3nc2NS(=O)(=O)c2cccc(NC(=O)C(C)(C)N)c2)c1 [XL147]
[1]; Well no.=4669
  remaining activity at 1.25 µM: 105%
[2]; Well no.=4669
  remaining activity at 3.75 µM: 106%

## CC[C@@H](C)Nc1cc(C(=O)N[C@H]2C[C@H]3CC[C@@H](C2)N3c2ccc(C(=O)C3CC3)cn2)c(C)cc1C(N)=O [XL888]
[1]; Well no.=8982
  remaining activity at 1.25 µM: 90.5%
[2]; Well no.=8982
  remaining activity at 3.75 µM: 93.8%

## CCOc1cc(N2CCC(O)CC2)ccc1Nc1ncc2c(n1)N(C)c1ccccc1C(=O)N2C [XMD8-92]
[1]; Well no.=5565
  remaining activity at 1.25 µM: 93.8%
[2]; Well no.=5565
  remaining activity at 3.75 µM: 95.2%

## CN1C(=O)c2sccc2N(C)c2nc(Nc3ccc(S(N)(=O)=O)cc3)ncc21 [XMU-MP-1]
[1]; Well no.=8268
  remaining activity at 1.25 µM: 97%
[2]; Well no.=8268
  remaining activity at 3.75 µM: 91.6%

## FC(F)(F)c1cccc(C2=CCN(CCc3ccc4ccccc4c3)CC2)c1 [Xaliproden hydrochloride]
[1]; Well no.=5767
  remaining activity at 1.25 µM: 106%
[2]; Well no.=5767
  remaining activity at 3.75 µM: 105%

## O=C(NCCNCC(O)COc1ccc(O)cc1)N1CCOCC1 (stereo not shown) [Xamoterol hemifumarate]
[1]; Well no.=1436
  remaining activity at 1.25 µM: 95.5%
[1]; Well no.=1741
  remaining activity at 1.25 µM: 102%
[2]; Well no.=1436
  remaining activity at 3.75 µM: 95.1%
[2]; Well no.=1741
  remaining activity at 3.75 µM: 103%

## CCCCCCOc1nsnc1C1=CCCN(C)C1 [Xanomeline (oxalate)]
[1]; Well no.=8005
  remaining activity at 1.25 µM: 103%
[2]; Well no.=8005
  remaining activity at 3.75 µM: 100%

## CCCn1c(=O)c2[nH]c(-c3ccc(OCC(=O)NCCN)cc3)nc2n(CCC)c1=O [Xanthine amine congener]
[1]; Well no.=1532
  remaining activity at 1.25 µM: 95.7%
[2]; Well no.=1532
  remaining activity at 3.75 µM: 89.4%

## O=c1[nH]c(=O)c2nc[nH]c2[nH]1 [Xanthine]
[1]; Well no.=7203
  remaining activity at 1.25 µM: 97.4%
[2]; Well no.=7203
  remaining activity at 3.75 µM: 96.5%

## COc1cc(O)c(CC=C(C)C)c(O)c1C(=O)/C=C/c1ccc(O)cc1 [Xanthohumol]
[1]; Well no.=8578
  remaining activity at 1.25 µM: 106%
[2]; Well no.=8578
  remaining activity at 3.75 µM: 102%

## OC[C@H]1O[C@@H](n2cnc3c(O)nc(O)nc32)[C@H](O)[C@@H]1O [Xanthosine]
[1]; Well no.=7397
  remaining activity at 1.25 µM: 106%
[2]; Well no.=7397
  remaining activity at 3.75 µM: 107%

## COc1c2occc2cc2ccc(=O)oc12 [Xanthotoxin]
[1]; Well no.=3459
  remaining activity at 1.25 µM: 104%
[2]; Well no.=3459
  remaining activity at 3.75 µM: 106%

## Cc1cccc(C)c1NC1=NCCCS1 [Xylazine (hydrochloride)]
[1]; Well no.=6847
  remaining activity at 1.25 µM: 101%
[2]; Well no.=6847
  remaining activity at 3.75 µM: 95.9%

## Cc1cccc(C)c1NC1=NCCCS1 [Xylazine]
[1]; Well no.=1652
  remaining activity at 1.25 µM: 103%
[2]; Well no.=1652
  remaining activity at 3.75 µM: 106%

## Cc1cc(C(C)(C)C)cc(C)c1CC1=NCCN1 [Xylometazoline (hydrochloride)]
[1]; Well no.=6281
  remaining activity at 1.25 µM: 106%
[2]; Well no.=6281
  remaining activity at 3.75 µM: 106%

## Cc1cc(C(C)(C)C)cc(C)c1CC1=NCCN1 [Xylometazoline hydrochloride]
[1]; Well no.=1484
  remaining activity at 1.25 µM: 96.8%
[2]; Well no.=1484
  remaining activity at 3.75 µM: 96.2%

## O=C[C@H](O)[C@@H](O)[C@H](O)CO [Xylose]
[1]; Well no.=6351
  remaining activity at 1.25 µM: 103%
[1]; Well no.=8144
  remaining activity at 1.25 µM: 99.9%
[2]; Well no.=6351
  remaining activity at 3.75 µM: 105%
[2]; Well no.=8144
  remaining activity at 3.75 µM: 96.9%

## C[C@@H](N)[C@H]1CC[C@H](C(=O)Nc2ccncc2)CC1 [Y-27632 dihydrochloride - trans-4-[(1R)-1-Aminoethyl]-N-4-pyridinylcyclohexanecarboxamide dihydrochloride]
[1]; Well no.=2350
  remaining activity at 1.25 µM: 105%
[2]; Well no.=2350
  remaining activity at 3.75 µM: 104%

## CCOC(=O)c1[nH]c2cc(Cl)ccc2c1C(C(=O)NC(C)(C)C)N(C=O)Cc1ccc(Cl)cc1 (stereo not shown) [YH239-EE]
[1]; Well no.=6392
  remaining activity at 1.25 µM: 98.6%
[2]; Well no.=6392
  remaining activity at 3.75 µM: 97.4%
